From the supplement of paper PMC10307832 come the findings set out here.

Common to all, as to experiment: relative viability (nuclei count vs DMSO), 5 days (fraction); higher = more cells survive
Compound in the assay “FH535 + Linsitinib”: CC1=C(C=CC(=C1)[N+](=O)[O-])NS(=O)(=O)C2=C(C=CC(=C2)Cl)Cl [FH535] + C[C@]1(O)C[C@@H](c2nc(-c3ccc4ccc(-c5ccccc5)nc4c3)c3c(N)nccn32)C1 [Linsitinib] (partner 1 µM)
In short, it runs like this: (§1)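 A single step with final 0.05% Triton X-100, 1% formaldehyde and 1 ug/ml Hoechst fixed the cells and stained nuclei 5 days after treatment. Lung cancer cell lines in 1536-well plates had been treated by pin tool the day after seeding with one drug alone or a fixed anchor-drug dose plus five library-drug doses (not always all listed) in √10 steps, and nuclei were counted on 4× images. Relative viability is the ratio of nuclei in treated wells to nuclei in vehicle wells, taken as the median of duplicate plates.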

Compound in the assay “FH535 + Luminespib”: CC1=C(C=CC(=C1)[N+](=O)[O-])NS(=O)(=O)C2=C(C=CC(=C2)Cl)Cl [FH535] + CCNC(=O)c1noc(-c2cc(C(C)C)c(O)cc2O)c1-c1ccc(CN2CCOCC2)cc1 [Luminespib] (partner 0.01 µM)
Put shortly:
as §1

Compound in the assay “FH535 + Pictilisib”: CC1=C(C=CC(=C1)[N+](=O)[O-])NS(=O)(=O)C2=C(C=CC(=C2)Cl)Cl [FH535] + CS(=O)(=O)N1CCN(Cc2cc3nc(-c4cccc5[nH]ncc45)nc(N4CCOCC4)c3s2)CC1 [Pictilisib] (partner 1 µM)
Put shortly:
as §1

Compound in the assay “FH535 + Phenformin”: CC1=C(C=CC(=C1)[N+](=O)[O-])NS(=O)(=O)C2=C(C=CC(=C2)Cl)Cl [FH535] + N=C(N)NC(=N)NCCc1ccccc1 [Phenformin] (partner 250 µM)
In short, it runs like this:
as §1

Compound in the assay “FH535 + Crizotinib”: CC1=C(C=CC(=C1)[N+](=O)[O-])NS(=O)(=O)C2=C(C=CC(=C2)Cl)Cl [FH535] + C[C@@H](Oc1cc(-c2cnn(C3CCNCC3)c2)cnc1N)c1c(Cl)ccc(F)c1Cl [Crizotinib] (partner 1 µM)
Put shortly:
as §1

SW 1573: the relative viability in the assay with FH535 + Linsitinib (first compound 0.04 µM) was 0.621; with FH535 + Linsitinib (first compound 0.1265 µM) it was 0.785; in the assay with FH535 + Linsitinib (first compound 0.4 µM), 0.855; with FH535 + Linsitinib (first compound 1.265 µM), 0.703; with FH535 + Luminespib (first compound 0.04 µM) it was 0.237; with FH535 + Luminespib (first compound 0.1265 µM), 0.346. Besides, the relative viability in the assay with FH535 + Luminespib (first compound 0.4 µM) stood at 0.193; with FH535 + Luminespib (first compound 1.265 µM), 0.638; with FH535 + Pictilisib (first compound 0.04 µM) it was 0.485; with FH535 + Pictilisib (first compound 0.1265 µM) it was 0.612; in the assay with FH535 + Pictilisib (first compound 0.4 µM) it was 0.471; with FH535 + Pictilisib (first compound 1.265 µM), 0.465. Further, the relative viability stood at 0.387 with FH535 + Phenformin (first compound 0.04 µM); 0.372 with FH535 + Phenformin (first compound 0.1265 µM); 0.307 in the assay with FH535 + Phenformin (first compound 0.4 µM); 0.163 in the assay with FH535 + Phenformin (first compound 1.265 µM); 0.64 with FH535 + Crizotinib (first compound 0.04 µM); 0.751 in the assay with FH535 + Crizotinib (first compound 0.1265 µM). The figures for the relative viability in the assay with FH535 + Crizotinib (first compound 0.4 µM) and with FH535 + Crizotinib (first compound 1.265 µM) were 0.865 and 0.683, respectively.
For the cell line ABC-1, the relative viability with FH535 + Linsitinib (first compound 0.04 µM) came to 0.963; in the assay with FH535 + Linsitinib (first compound 0.1265 µM) it was 0.836; in the assay with FH535 + Linsitinib (first compound 0.4 µM), 0.864; with FH535 + Linsitinib (first compound 1.265 µM) it was 0.788; in the assay with FH535 + Luminespib (first compound 0.04 µM), 0.543; with FH535 + Luminespib (first compound 0.1265 µM) it was 0.861. Also, the relative viability in the assay with FH535 + Luminespib (first compound 0.4 µM) stood at 0.627; with FH535 + Luminespib (first compound 1.265 µM), 0.337; with FH535 + Pictilisib (first compound 0.04 µM) it was 0.601; with FH535 + Pictilisib (first compound 0.1265 µM) it was 0.878; with FH535 + Pictilisib (first compound 0.4 µM), 0.702; with FH535 + Pictilisib (first compound 1.265 µM) it was 0.735. The relative viability stood at 0.263 with FH535 + Phenformin (first compound 0.04 µM); 0.209 with FH535 + Phenformin (first compound 0.1265 µM); 0.184 in the assay with FH535 + Phenformin (first compound 0.4 µM); 0.179 in the assay with FH535 + Phenformin (first compound 1.265 µM); 1.19 in the assay with FH535 + Crizotinib (first compound 0.04 µM); 0.866 with FH535 + Crizotinib (first compound 0.1265 µM). Also, the relative viability with FH535 + Crizotinib (first compound 0.4 µM) came to 1.2; with FH535 + Crizotinib (first compound 1.265 µM), 0.618.
COR-L 105: the relative viability with FH535 + Linsitinib (first compound 0.04 µM) came out at 0.903; with FH535 + Linsitinib (first compound 0.1265 µM), 0.933; with FH535 + Linsitinib (first compound 0.4 µM), 0.894; with FH535 + Linsitinib (first compound 1.265 µM) it was 0.91; with FH535 + Luminespib (first compound 0.04 µM), 0.499; with FH535 + Luminespib (first compound 0.1265 µM), 0.952. Besides, the relative viability is 0.738 with FH535 + Luminespib (first compound 0.4 µM); 0.671 with FH535 + Luminespib (first compound 1.265 µM); 0.27 with FH535 + Pictilisib (first compound 0.04 µM); 0.385 in the assay with FH535 + Pictilisib (first compound 0.1265 µM); 0.384 with FH535 + Pictilisib (first compound 0.4 µM); 0.394 with FH535 + Pictilisib (first compound 1.265 µM). The relative viability with FH535 + Phenformin (first compound 0.04 µM) turned out to be 0.411; with FH535 + Phenformin (first compound 0.1265 µM) it was 0.461; with FH535 + Phenformin (first compound 0.4 µM), 0.405; in the assay with FH535 + Phenformin (first compound 1.265 µM), 0.382; with FH535 + Crizotinib (first compound 0.04 µM), 0.751; in the assay with FH535 + Crizotinib (first compound 0.1265 µM) it was 0.885. Moreover, the relative viability with FH535 + Crizotinib (first compound 0.4 µM) is 0.792; with FH535 + Crizotinib (first compound 1.265 µM), 0.86.
As to LOU-NH91, the relative viability with FH535 + Linsitinib (first compound 0.04 µM) was determined as 0.861; with FH535 + Linsitinib (first compound 0.1265 µM) it was 1.02; with FH535 + Linsitinib (first compound 0.4 µM), 0.932; with FH535 + Linsitinib (first compound 1.265 µM) it was 0.506; with FH535 + Luminespib (first compound 0.04 µM) it was 0.333; with FH535 + Luminespib (first compound 0.1265 µM), 0.326. Moreover, the relative viability in the assay with FH535 + Luminespib (first compound 0.4 µM) amounted to 0.369; with FH535 + Luminespib (first compound 1.265 µM), 0.288; with FH535 + Pictilisib (first compound 0.04 µM), 0.471; in the assay with FH535 + Pictilisib (first compound 0.1265 µM), 0.554; with FH535 + Pictilisib (first compound 0.4 µM), 0.48; with FH535 + Pictilisib (first compound 1.265 µM), 0.339. The relative viability with FH535 + Phenformin (first compound 0.04 µM) is 0.554; in the assay with FH535 + Phenformin (first compound 0.1265 µM) it was 0.471; in the assay with FH535 + Phenformin (first compound 0.4 µM), 0.424; with FH535 + Phenformin (first compound 1.265 µM) it was 0.392; with FH535 + Crizotinib (first compound 0.04 µM), 0.622; with FH535 + Crizotinib (first compound 0.1265 µM), 0.721. The figures for the relative viability in the assay with FH535 + Crizotinib (first compound 0.4 µM) and with FH535 + Crizotinib (first compound 1.265 µM) were 0.698 and 0.477, respectively.
For NCI-H727, the relative viability in the assay with FH535 + Linsitinib (first compound 0.04 µM) was determined as 0.367; with FH535 + Linsitinib (first compound 0.1265 µM), 0.192; in the assay with FH535 + Linsitinib (first compound 0.4 µM) it was 0.293; with FH535 + Linsitinib (first compound 1.265 µM) it was 0.216; in the assay with FH535 + Luminespib (first compound 0.04 µM), 0.323; with FH535 + Luminespib (first compound 0.1265 µM) it was 0.5. In addition, the relative viability with FH535 + Luminespib (first compound 0.4 µM) was 0.327; in the assay with FH535 + Luminespib (first compound 1.265 µM) it was 0.297; with FH535 + Pictilisib (first compound 0.04 µM) it was 0.482; with FH535 + Pictilisib (first compound 0.1265 µM) it was 0.315; in the assay with FH535 + Pictilisib (first compound 0.4 µM) it was 0.401; in the assay with FH535 + Pictilisib (first compound 1.265 µM), 0.366. Moreover, the relative viability in the assay with FH535 + Phenformin (first compound 0.04 µM) stood at 0.56; with FH535 + Phenformin (first compound 0.1265 µM) it was 0.509; with FH535 + Phenformin (first compound 0.4 µM), 0.363; with FH535 + Phenformin (first compound 1.265 µM), 0.305; in the assay with FH535 + Crizotinib (first compound 0.04 µM), 0.917; in the assay with FH535 + Crizotinib (first compound 0.1265 µM), 0.848. Moreover, the relative viability with FH535 + Crizotinib (first compound 0.4 µM) was 0.823; with FH535 + Crizotinib (first compound 1.265 µM) it was 0.783.
Turning to LU99A, the relative viability was 0.385 with FH535 + Linsitinib (first compound 0.04 µM); 0.546 with FH535 + Linsitinib (first compound 0.1265 µM); 0.532 in the assay with FH535 + Linsitinib (first compound 0.4 µM); 0.571 with FH535 + Linsitinib (first compound 1.265 µM); 0.225 with FH535 + Luminespib (first compound 0.04 µM); 0.272 with FH535 + Luminespib (first compound 0.1265 µM). Moreover, the relative viability in the assay with FH535 + Luminespib (first compound 0.4 µM) was 0.209; with FH535 + Luminespib (first compound 1.265 µM) it was 0.236; with FH535 + Pictilisib (first compound 0.04 µM), 0.291; in the assay with FH535 + Pictilisib (first compound 0.1265 µM), 0.324; with FH535 + Pictilisib (first compound 0.4 µM), 0.335; with FH535 + Pictilisib (first compound 1.265 µM), 0.295. Moreover, the relative viability with FH535 + Phenformin (first compound 0.04 µM) came out at 0.55; in the assay with FH535 + Phenformin (first compound 0.1265 µM), 0.856; in the assay with FH535 + Phenformin (first compound 0.4 µM), 0.764; in the assay with FH535 + Phenformin (first compound 1.265 µM) it was 0.729; in the assay with FH535 + Crizotinib (first compound 0.04 µM), 0.508; in the assay with FH535 + Crizotinib (first compound 0.1265 µM), 0.598. In addition, the relative viability with FH535 + Crizotinib (first compound 0.4 µM) was 0.604; in the assay with FH535 + Crizotinib (first compound 1.265 µM), 0.584.
With UMC-11, the relative viability was 1.05 in the assay with FH535 + Linsitinib (first compound 0.04 µM); 1.1 with FH535 + Linsitinib (first compound 0.1265 µM); 0.962 with FH535 + Linsitinib (first compound 0.4 µM); 0.805 with FH535 + Linsitinib (first compound 1.265 µM); 1.12 with FH535 + Luminespib (first compound 0.04 µM); 1.03 with FH535 + Luminespib (first compound 0.1265 µM). Further, the relative viability in the assay with FH535 + Luminespib (first compound 0.4 µM) is 1.02; with FH535 + Luminespib (first compound 1.265 µM), 0.763; with FH535 + Pictilisib (first compound 0.04 µM), 0.749; in the assay with FH535 + Pictilisib (first compound 0.1265 µM) it was 0.619; with FH535 + Pictilisib (first compound 0.4 µM), 0.726; in the assay with FH535 + Pictilisib (first compound 1.265 µM), 0.787. Besides, the relative viability with FH535 + Phenformin (first compound 0.04 µM) came out at 0.289; in the assay with FH535 + Phenformin (first compound 0.1265 µM) it was 0.378; in the assay with FH535 + Phenformin (first compound 0.4 µM) it was 0.28; with FH535 + Phenformin (first compound 1.265 µM), 0.211; in the assay with FH535 + Crizotinib (first compound 0.04 µM), 0.639; in the assay with FH535 + Crizotinib (first compound 0.1265 µM) it was 0.583. Also, the figures for the relative viability in the assay with FH535 + Crizotinib (first compound 0.4 µM) and with FH535 + Crizotinib (first compound 1.265 µM) were 0.582 and 0.626, respectively.
